Patent US20130216666A1, “CASHEW NUT SHELL LIQUID WITH IMPROVED STABILITY” (IDEMITSU KOSAN CO., LTD., priority 2010, published 2013)
Where two headings read alike, the source gives them in different places.

Experiments:
[1] = Inhibition of decarboxylation reaction in unheated cashew nut shell liquid formulation (silica), citric acid; assay type: physicochemical; settings: 80° C.; for Anacardic Acid 15:1 Composition (%) / Anacardic Acid 15:1 concentration / Anacardic Acid 15:2 Composition (%) / Anacardic Acid 15:2 concentration / Anacardic Acid 15:3 Composition (%) / Anacardic Acid 15:3 concentration / Cardanol 15:1 concentration / Cardanol 15:2 Composition (%) / Cardanol 15:2 concentration / Cardanol 15:3 Composition (%) / Cardanol 15:3 concentration / Cardanol 15:1 Composition (%): mixed with silica; for inhibition of the decarboxylation: formulation with silica, 6 days
Source text: 10 g of silica (Sipernat 22) was placed into each of beakers.

[2] = Inhibition of decarboxylation reaction in feed; settings: 10% by weight in unheated CNSL, 80° C.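 Also: ethyl acetate extract of test feed analysed by reversed-phase C18 HPLC with absorbance detection at 280 nm, giving component composition.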
Protocol: The analysis was carried out under the conditions of a solvent composition of acetonitrile: water: acetic acid =80:20:1 (based on volume), a flow rate of 2 ml/min, a temperature of 25° C., and an absorbance of 280 nm.
Samples were taken from the beakers after 3 days and analyzed for composition by HPLC.
For HPLC analysis, soluble fractions of the test feed was extracted with ethyl acetate and then filtered and dried to concentrate it to 5 mg/ml.

[3] = Inhibition of decarboxylation reaction when organic acid chelating agent was added (HPLC); assay type: physicochemical; settings: 80° C.
[4] = 80° C.; for Anacardic Acid 15:1 Composition (%) / Anacardic Acid 15:1 concentration / Anacardic Acid 15:2 Composition (%) / Anacardic Acid 15:2 concentration / Anacardic Acid 15:3 Composition (%) / Anacardic Acid 15:3 concentration / Cardanol 15:1 Composition (%) / Cardanol 15:1 concentration / Cardanol 15:2 Composition (%) / Cardanol 15:2 concentration / Cardanol 15:3 Composition (%) / Cardanol 15:3 concentration: 10% by weight in unheated CNSL
[5] = Inhibition of decarboxylation reaction in unheated cashew nut shell liquid formulation (silica), phosphoric acid / phosphate; assay type: physicochemical; settings: 80° C.; for Anacardic Acid 15:1 Composition (%) / Anacardic Acid 15:1 concentration / Anacardic Acid 15:2 Composition (%) / Anacardic Acid 15:2 concentration / Anacardic Acid 15:3 Composition (%) / Anacardic Acid 15:3 concentration / Cardanol 15:1 Composition (%) / Cardanol 15:1 concentration / Cardanol 15:2 Composition (%) / Cardanol 15:2 concentration / Cardanol 15:3 Composition (%) / Cardanol 15:3 concentration: 10% by weight in unheated CNSL, mixed with silica
Protocol: 10 g of silica (Sipernat 22) was placed into each of beakers. […] The sodium dihydrogen phosphate was added as an aqueous solution.

[6] = 2% by weight in unheated CNSL, Day 0
[7] = 2% by weight in unheated CNSL, Day 6
[8] = 10% by weight in unheated CNSL, Day 0
[9] = 10% by weight in unheated CNSL, Day 6
[10] = silica composition 1% by weight in feed, Day 0
[11] = silica composition 1% by weight in feed, Day 3

O=C(O)CC(O)(CC(=O)O)C(=O)O [Citric Acid, citric acid]
Anacardic Acid 15:1 Composition (%) [1, 6]: 39.36%
Anacardic Acid 15:1 concentration [1, 6]: 161.67 ppm
Anacardic Acid 15:2 Composition (%) [1, 6]: 14.07%
Anacardic Acid 15:2 concentration [1, 6]: 57.80 ppm
Anacardic Acid 15:3 Composition (%) [1, 6]: 32.64%
Anacardic Acid 15:3 concentration [1, 6]: 134.06 ppm
Cardanol 15:1 concentration [1, 6]: 23.41 ppm
Cardanol 15:2 Composition (%) [1, 6]: 2.78%
Cardanol 15:2 concentration [1, 6]: 11.43 ppm
Cardanol 15:3 Composition (%) [1, 6]: 5.44%
Cardanol 15:3 concentration [1, 6]: 22.36 ppm
Anacardic Acid 15:1 Composition (%) [1, 7]: 32.92%
Anacardic Acid 15:1 concentration [1, 7]: 121.26 ppm
Anacardic Acid 15:2 Composition (%) [1, 7]: 11.63%
Anacardic Acid 15:2 concentration [1, 7]: 42.84 ppm
Anacardic Acid 15:3 Composition (%) [1, 7]: 26.37%
Anacardic Acid 15:3 concentration [1, 7]: 97.14 ppm
Cardanol 15:1 Composition (%) [1, 7]: 12.91%
Cardanol 15:1 concentration [1, 7]: 47.56 ppm
Cardanol 15:2 Composition (%) [1, 7]: 4.67%
Cardanol 15:2 concentration [1, 7]: 17.19 ppm
Cardanol 15:3 Composition (%) [1, 7]: 11.49%
Cardanol 15:3 concentration [1, 7]: 42.34 ppm
Anacardic Acid 15:1 Composition (%) [1, 8]: 39.73%
Anacardic Acid 15:1 concentration [1, 8]: 151.81 ppm
Anacardic Acid 15:2 Composition (%) [1, 8]: 14.05%
Anacardic Acid 15:2 concentration [1, 8]: 53.68 ppm
Anacardic Acid 15:3 Composition (%) [1, 8]: 32.47%
Anacardic Acid 15:3 concentration [1, 8]: 124.09 ppm
Cardanol 15:1 concentration [1, 8]: 21.54 ppm
Cardanol 15:2 Composition (%) [1, 8]: 2.79%
Cardanol 15:2 concentration [1, 8]: 10.67 ppm
Cardanol 15:3 Composition (%) [1, 8]: 5.32%
Cardanol 15:3 concentration [1, 8]: 20.34 ppm
Anacardic Acid 15:1 Composition (%) [1, 9]: 38.12%
Anacardic Acid 15:1 concentration [1, 9]: 136.67 ppm
Anacardic Acid 15:2 Composition (%) [1, 9]: 14.58%
Anacardic Acid 15:2 concentration [1, 9]: 52.15 ppm
Anacardic Acid 15:3 Composition (%) [1, 9]: 30.40%
Anacardic Acid 15:3 concentration [1, 9]: 108.99 ppm
Cardanol 15:1 Composition (%) [1, 9]: 7.19%
Cardanol 15:1 concentration [1, 9]: 25.79 ppm
Cardanol 15:2 Composition (%) [1, 9]: 3.19%
Cardanol 15:2 concentration [1, 9]: 11.43 ppm
Cardanol 15:3 Composition (%) [1, 9]: 6.55%
Cardanol 15:3 concentration [1, 9]: 23.49 ppm
inhibition of the decarboxylation ([1]; 2% by weight): moderate inhibition
inhibition of the decarboxylation ([1]; 10% by weight): significant inhibition
stability of the shell liquid in the feed (progress of the decarboxylation) ([2]; in feed, 3 days): stable in the feed without progress of the decarboxylation
Anacardic Acid 15:1 Composition (%) [2, 10]: 40.28%
Anacardic Acid 15:1 concentration [2, 10]: 363.92 ppm
Anacardic Acid 15:2 Composition (%) [2, 10]: 13.76%
Anacardic Acid 15:2 concentration [2, 10]: 124.28 ppm
Anacardic Acid 15:3 Composition (%) [2, 10]: 33.11%
Anacardic Acid 15:3 concentration [2, 10]: 299.13 ppm
Cardanol 15:1 concentration [2, 10]: 48.69 ppm
Cardanol 15:2 Composition (%) [2, 10]: 2.31%
Cardanol 15:2 concentration [2, 10]: 20.83 ppm
Cardanol 15:3 Composition (%) [2, 10]: 5.15%
Cardanol 15:3 concentration [2, 10]: 46.52 ppm
Anacardic Acid 15:1 Composition (%) [2, 11]: 38.54%
Anacardic Acid 15:1 concentration [2, 11]: 309.33 ppm
Anacardic Acid 15:2 Composition (%) [2, 11]: 13.16%
Anacardic Acid 15:2 concentration [2, 11]: 105.64 ppm
Anacardic Acid 15:3 Composition (%) [2, 11]: 31.68%
Anacardic Acid 15:3 concentration [2, 11]: 254.26 ppm
Cardanol 15:1 Composition (%) [2, 11]: 6.98%
Cardanol 15:1 concentration [2, 11]: 56.00 ppm
Cardanol 15:2 Composition (%) [2, 11]: 2.98%
Cardanol 15:2 concentration [2, 11]: 23.95 ppm
Cardanol 15:3 Composition (%) [2, 11]: 6.67%
Cardanol 15:3 concentration [2, 11]: 53.50 ppm
Anacardic Acid 15:1 Composition (%) [3, 6]: 39.78%
Anacardic Acid 15:1 concentration [3, 6]: 332.79 ppm
Anacardic Acid 15:2 Composition (%) [3, 6]: 14.23%
Anacardic Acid 15:2 concentration [3, 6]: 119.04 ppm
Anacardic Acid 15:3 Composition (%) [3, 6]: 33.01%
Anacardic Acid 15:3 concentration [3, 6]: 276.11 ppm
Cardanol 15:1 concentration [3, 6]: 45.23 ppm
Cardanol 15:2 Composition (%) [3, 6]: 2.32%
Cardanol 15:2 concentration [3, 6]: 19.40 ppm
Cardanol 15:3 Composition (%) [3, 6]: 5.25%
Cardanol 15:3 concentration [3, 6]: 43.93 ppm
Anacardic Acid 15:1 Composition (%) [3, 7]: 32.78%
Anacardic Acid 15:1 concentration [3, 7]: 281.46 ppm
Anacardic Acid 15:2 Composition (%) [3, 7]: 11.39%
Anacardic Acid 15:2 concentration [3, 7]: 97.81 ppm
Anacardic Acid 15:3 Composition (%) [3, 7]: 26.31%
Anacardic Acid 15:3 concentration [3, 7]: 225.94 ppm
Cardanol 15:1 concentration [3, 7]: 111.23 ppm
Cardanol 15:2 Composition (%) [3, 7]: 4.84%
Cardanol 15:2 concentration [3, 7]: 41.54 ppm
Cardanol 15:3 Composition (%) [3, 7]: 11.72%
Cardanol 15:3 concentration [3, 7]: 100.64 ppm
Anacardic Acid 15:1 Composition (%) [3, 8]: 39.28%
Anacardic Acid 15:1 concentration [3, 8]: 248.49 ppm
Anacardic Acid 15:2 Composition (%) [3, 8]: 14.38%
Anacardic Acid 15:2 concentration [3, 8]: 90.98 ppm
Anacardic Acid 15:3 Composition (%) [3, 8]: 33.19%
Anacardic Acid 15:3 concentration [3, 8]: 209.99 ppm
Cardanol 15:1 concentration [3, 8]: 34.38 ppm
Cardanol 15:2 Composition (%) [3, 8]: 2.45%
Cardanol 15:2 concentration [3, 8]: 15.47 ppm
Cardanol 15:3 Composition (%) [3, 8]: 5.27%
Cardanol 15:3 concentration [3, 8]: 33.37 ppm
Anacardic Acid 15:1 Composition (%) [3, 9]: 38.07%
Anacardic Acid 15:1 concentration [3, 9]: 273.99 ppm
Anacardic Acid 15:2 Composition (%) [3, 9]: 13.78%
Anacardic Acid 15:2 concentration [3, 9]: 99.14 ppm
Anacardic Acid 15:3 Composition (%) [3, 9]: 31.48%
Anacardic Acid 15:3 concentration [3, 9]: 226.51 ppm
Cardanol 15:1 concentration [3, 9]: 49.53 ppm
Cardanol 15:2 Composition (%) [3, 9]: 3.30%
Cardanol 15:2 concentration [3, 9]: 23.72 ppm
Cardanol 15:3 Composition (%) [3, 9]: 6.49%
Cardanol 15:3 concentration [3, 9]: 46.72 ppm

O=P([O-])(O)O.[Na+] [Sodium Dihydrogen Phosphate, sodium dihydrogen phosphate]
Anacardic Acid 15:1 Composition (%) ([4]; Day 0): 39.93%
Anacardic Acid 15:1 concentration ([4]; Day 0): 1103 ppm
Anacardic Acid 15:2 Composition (%) ([4]; Day 0): 14.10%
Anacardic Acid 15:2 concentration ([4]; Day 0): 389 ppm
Anacardic Acid 15:3 Composition (%) ([4]; Day 0): 32.43%
Anacardic Acid 15:3 concentration ([4]; Day 0): 896 ppm
Cardanol 15:1 Composition (%) ([4]; Day 0): 5.46%
Cardanol 15:1 concentration ([4]; Day 0): 151 ppm
Cardanol 15:2 Composition (%) ([4]; Day 0): 2.52%
Cardanol 15:2 concentration ([4]; Day 0): 70 ppm
Cardanol 15:3 Composition (%) ([4]; Day 0): 5.55%
Cardanol 15:3 concentration ([4]; Day 0): 153 ppm
Anacardic Acid 15:1 Composition (%) ([4]; Day 3): 30.94%
Anacardic Acid 15:1 concentration ([4]; Day 3): 964 ppm
Anacardic Acid 15:2 Composition (%) ([4]; Day 3): 10.81%
Anacardic Acid 15:2 concentration ([4]; Day 3): 337 ppm
Anacardic Acid 15:3 Composition (%) ([4]; Day 3): 24.87%
Anacardic Acid 15:3 concentration ([4]; Day 3): 774 ppm
Cardanol 15:1 Composition (%) ([4]; Day 3): 14.32%
Cardanol 15:1 concentration ([4]; Day 3): 446 ppm
Cardanol 15:2 Composition (%) ([4]; Day 3): 5.95%
Cardanol 15:2 concentration ([4]; Day 3): 185 ppm
Cardanol 15:3 Composition (%) ([4]; Day 3): 13.10%
Cardanol 15:3 concentration ([4]; Day 3): 408 ppm
inhibition of the decarboxylation ([4]; 10% by weight, three days): moderate inhibition
Anacardic Acid 15:1 Composition (%) ([5]; Day 0): 40.20%
Anacardic Acid 15:1 concentration ([5]; Day 0): 563.78 ppm
Anacardic Acid 15:2 Composition (%) ([5]; Day 0): 14.00%
Anacardic Acid 15:2 concentration ([5]; Day 0): 196.40 ppm
Anacardic Acid 15:3 Composition (%) ([5]; Day 0): 32.21%
Anacardic Acid 15:3 concentration ([5]; Day 0): 451.72 ppm
Cardanol 15:1 Composition (%) ([5]; Day 0): 5.74%
Cardanol 15:1 concentration ([5]; Day 0): 80.56 ppm
Cardanol 15:2 Composition (%) ([5]; Day 0): 2.45%
Cardanol 15:2 concentration ([5]; Day 0): 34.39 ppm
Cardanol 15:3 Composition (%) ([5]; Day 0): 5.39%
Cardanol 15:3 concentration ([5]; Day 0): 75.66 ppm
Anacardic Acid 15:1 Composition (%) ([5]; Day 3): 32.90%
Anacardic Acid 15:1 concentration ([5]; Day 3): 502.26 ppm
Anacardic Acid 15:2 Composition (%) ([5]; Day 3): 11.28%
Anacardic Acid 15:2 concentration ([5]; Day 3): 172.11 ppm
Anacardic Acid 15:3 Composition (%) ([5]; Day 3): 25.93%
Anacardic Acid 15:3 concentration ([5]; Day 3): 395.86 ppm
Cardanol 15:1 Composition (%) ([5]; Day 3): 13.16%
Cardanol 15:1 concentration ([5]; Day 3): 200.81 ppm
Cardanol 15:2 Composition (%) ([5]; Day 3): 5.23%
Cardanol 15:2 concentration ([5]; Day 3): 79.82 ppm
Cardanol 15:3 Composition (%) ([5]; Day 3): 11.50%
Cardanol 15:3 concentration ([5]; Day 3): 175.60 ppm
inhibition of the decarboxylation ([5]; formulation with silica, 10% by weight, 3 days): moderate inhibition
